Structures can show the parent of a compound that is named as a salt.
Columns and labels:
[1] = target: T1, human recombinant D2 receptor (Homo sapiens, UniProt P14416); test: D2 antagonistic activity test (LANCE cAMP, antagonism of dopamine inhibition of cAMP production in HEK293 cells); assay type: cell-based; details: HEK293 cells expressing human recombinant D2 receptor; test concentration 0.1 nM to 10000 nM; read-out: D2 Antagonistic Activity (IC50, nmol/L)
T1 construct: expressed in transfected cells; host or cells: HEK293
Description: LANCE™ cAMP 384 Kit (PerkinElmer, USA) was used to test the antagonism of the compound against the D1 receptor using the HEK293 cells expressing human recombinant D1 receptor. The D1 antagonism of the compound was evaluated by testing the antagonistic action of the compounds against dopamine on the induction of cAMP production in HEK293 cells. The cAMP concentration test was performed according to the method described in the kit instructions. The test concentration of the compound was 0.1 nM to 10000 nM. SCH23390 was used as a positive control. The IC50 was calculated by Excelfit software. The test results of some compounds were shown in Table 1. • 2) D2 antagonistic activity test LANCE™ cAMP 384 Kit (PerkinElmer, USA) was used to test the antagonism of the compound against the D2 receptor using the HEK293 cells expressing human recombinant D2 receptor. The D2 antagonism of the compound was evaluated by testing the antagonistic action of the compounds against dopamine on the inhibition of cAMP production in HEK293 cells. The cAMP concentration test was performed according to the method described in the kit instructions. The test concentration of the compound was 0.1 nM to 10000 nM. Risperidone was used as a positive control. The IC50 was calculated by Excelfit software. The test results of some compounds were shown in Table 1 (ND means the test was not performed).

[2] = target: T2, human recombinant 5-HT1A receptor (Homo sapiens, UniProt P08908); test: 5-HT1A agonistic activity test (LANCE cAMP, inhibition of cAMP production in HEK293 cells); assay type: cell-based; details: HEK293 cells expressing human recombinant 5-HT1A receptor; test concentration 0.1 nM to 10000 nM; read-out: 5-HT1A Agonistic Activity (EC50, nmol/L)
T2 construct: expressed in transfected cells; host or cells: HEK293
T2 sequence (P08908 1-422): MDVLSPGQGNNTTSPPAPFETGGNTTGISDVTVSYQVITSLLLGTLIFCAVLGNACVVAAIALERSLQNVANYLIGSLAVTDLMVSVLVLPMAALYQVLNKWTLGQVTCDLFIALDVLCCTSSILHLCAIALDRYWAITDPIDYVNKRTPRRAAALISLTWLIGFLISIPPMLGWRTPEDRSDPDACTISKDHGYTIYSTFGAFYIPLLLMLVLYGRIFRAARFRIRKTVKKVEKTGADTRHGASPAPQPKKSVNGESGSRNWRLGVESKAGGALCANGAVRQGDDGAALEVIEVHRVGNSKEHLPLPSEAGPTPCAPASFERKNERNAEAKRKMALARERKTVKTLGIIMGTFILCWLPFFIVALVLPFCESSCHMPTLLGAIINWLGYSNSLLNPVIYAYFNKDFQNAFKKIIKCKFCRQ
Description: • 3) 5-HT1A agonistic activity test
LANCE™ cAMP 384 Kit (PerkinElmer, USA) was used to test the agonistic effect of the compound on 5-HT1A receptor using the HEK293 cells expressing human recombinant 5-HT1A receptor. The 5-HT1A agonistic effect of the compound was evaluated by testing the inhibitory effect of the compound on cAMP production in HEK293 cells. The cAMP concentration test was performed according to the method described in the kit instructions. The test concentration of the compound was 0.1 nM to 10000 nM. 8-OH-DPAT was used as a positive control. The EC50 was calculated by Excelfit software.

[3] = target: T3, human recombinant D1 receptor (Homo sapiens, UniProt P21728); test: D1 antagonistic activity test (LANCE cAMP, antagonism of dopamine-induced cAMP production in HEK293 cells); assay type: cell-based; details: HEK293 cells expressing human recombinant D1 receptor; test concentration 0.1 nM to 10000 nM; read-out: D1 Antagonistic Activity (IC50, nmol/L)
T3 construct: expressed in transfected cells; host or cells: HEK293
Description: • 1) D1 antagonistic activity test
The D1 antagonism of the compound was evaluated by testing the antagonistic action of the compounds against dopamine on the induction of cAMP production in HEK293 cells. The cAMP concentration test was performed according to the method described in the kit instructions. The test concentration of the compound was 0.1 nM to 10000 nM. SCH23390 was used as a positive control. The IC50 was calculated by Excelfit software.

[4] = system: PCP-induced high spontaneous activity in mice; test: PCP-induced high spontaneous activity test in mice; assay type: in vivo, Male ICR mice; details: dose by gavage that significantly reduces PCP (7 mg/kg ip) induced high spontaneous activity of mice vs model group
Description: PCP (phencylidine) was dissolved in physiological saline to prepare a 7 mg/kg solution. The test compound was formulated with a 0.5% CMC-Na solution to a solution with suitable concentration, ready-to-use. Male ICR mice were 18-22 g. Mice were randomly divided into a solvent control group, a model control group, a positive control group, and each test drug group during the test. There were 8 mice in each group. Mice in each group were given each test drug by gavage. 45 minutes after the test drug was administered, mice were injected with a PCP (7 mg/kg) solution intraperitoneally. The spontaneous, open field video analysis system was used to record the mouse movement trajectory within 45 min after administration of test drug or saline, and then the mouse movement trajectory within 75 min after PCP administration. Spontaneous, open field video analysis system was used to analyze the mouse's movement trajectory, and the total distance of the movement of the mice in each group was counted. The result was expressed as mean±SD. Results were analyzed by one-way analysis of variance.

T1 sequence (P14416 whole entry): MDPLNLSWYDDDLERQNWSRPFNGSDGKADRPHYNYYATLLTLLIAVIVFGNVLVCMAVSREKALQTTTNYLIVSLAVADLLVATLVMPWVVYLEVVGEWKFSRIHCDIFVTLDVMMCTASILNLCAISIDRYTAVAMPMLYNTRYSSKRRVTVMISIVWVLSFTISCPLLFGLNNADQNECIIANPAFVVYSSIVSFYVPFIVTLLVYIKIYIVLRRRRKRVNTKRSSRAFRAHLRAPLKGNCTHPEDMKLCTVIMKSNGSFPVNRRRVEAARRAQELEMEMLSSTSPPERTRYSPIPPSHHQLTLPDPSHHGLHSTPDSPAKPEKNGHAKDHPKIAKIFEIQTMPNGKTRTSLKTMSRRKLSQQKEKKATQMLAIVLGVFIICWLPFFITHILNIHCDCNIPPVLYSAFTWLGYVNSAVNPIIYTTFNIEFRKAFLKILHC
T3 sequence (P21728 whole entry): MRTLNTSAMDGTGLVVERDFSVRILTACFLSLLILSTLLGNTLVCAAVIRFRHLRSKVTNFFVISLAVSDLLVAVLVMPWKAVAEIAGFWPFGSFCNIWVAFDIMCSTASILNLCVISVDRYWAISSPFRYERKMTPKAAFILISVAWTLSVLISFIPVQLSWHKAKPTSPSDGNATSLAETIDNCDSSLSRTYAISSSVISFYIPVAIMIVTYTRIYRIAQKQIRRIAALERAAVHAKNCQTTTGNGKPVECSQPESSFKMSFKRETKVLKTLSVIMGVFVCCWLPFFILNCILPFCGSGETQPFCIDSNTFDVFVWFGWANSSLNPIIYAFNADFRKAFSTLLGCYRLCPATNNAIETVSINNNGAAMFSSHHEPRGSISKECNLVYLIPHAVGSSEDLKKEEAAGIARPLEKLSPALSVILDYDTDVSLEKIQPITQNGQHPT

| Structure (SMILES) | IC50 [1] | EC50 [2] | IC50 [3] | Effective Dose [4] |
| --- | --- | --- | --- | --- |
| COc1cc2c(cc1C(N)=O)[C@@H]1Cc3ccc(OC)c(OC)c3CN1CC2 [Example 5, (S)-2-carbamoyl-3,9,10-trimethoxy-6,8,13,13a-tetrahydro-5H-dibenzo [a,g] quinolizine] | 35 nmol/L | 450 nmol/L | 170 nmol/L | 10 mg/kg |
| COc1cc2c(cc1CNC(C)=O)[C@@H]1Cc3ccc(OC)c(OC)c3CN1CC2 [Example 11, (S)-2-acetaminomethyl-3,9,10-trimethoxy-6,8,13,13a-tetrahydro-5H-dibenzo[a,g] quinolizine] | 750 nmol/L | 1700 nmol/L | 500 nmol/L | 10 mg/kg |
| COc1cc2c(cc1C(C)=O)[C@@H]1Cc3ccc(OC)c(OC)c3CN1CC2 [Example 12, (S)-2-acetyl-3,9,10-trimethoxy-6,8,13,13a-tetrahydro-5H-dibenzo [a,g] quinolizine] | 500 nmol/L | 2300 nmol/L | 240 nmol/L | – |
| COc1cc2c(cc1NC(C)=O)[C@@H]1Cc3ccc(OC)c(OC)c3CN1CC2 [Example 14, (S)-2-acetamido-3,9,10-trimethoxy-6,8,13,13a4tetrahydro-5H-dibenzo[a,g] quinolizine hydrochloride] | – | 514 nmol/L | – | 10 mg/kg |
| COc1cc2c(cc1OC)[C@@H]1Cc3ccc(OC)c(C(C)=O)c3CN1CC2 [Example 21, (S)-2,3,10-trimethoxy-9-acetyl-6,8,13,13a-tetrahydro-5H-dibenzo [a,g] quinolizine] | – | 238 nmol/L | 1500 nmol/L | 20 mg/kg |
| COc1cc2c(cc1OC)[C@@H]1Cc3ccc(OC)c(CNC(C)=O)c3CN1CC2 [Example 23, (S)-2,3,10-trimethoxy-9-acetylaminomethyl-6,8,13,13a-tetrahydro-5H-dibenzo[a,g] quinolizine] | – | 1900 nmol/L | – | – |
| COc1cc2c(cc1OC)[C@@H]1Cc3ccc(C#N)c(OC)c3CN1CC2 [Example 27, (S)-2,3,9-trimethoxy-10-cyano-6,8,13,13a-tetrahydro-5H-dibenzo[a,g] quinolizine] | 1000 nmol/L | 1200 nmol/L | 311 nmol/L | – |
| COc1ccc2c(c1OC)CN1CCc3cc(C#N)c(C#N)cc3C1C2 (stereo not drawn) [Example 35, 2,3-dicyano-9,10-dimethoxy-6,8,13,13a-tetrahydro-5H-dibenzo[a,g] quinolizine] | – | 5900 nmol/L | – | – |
| COc1cc2c(cc1C#N)[C@@H]1Cc3ccc(C#N)c(OC)c3CN1CC2 [Example 37, (S)-2,10-dicyano-3,9-dimethoxy-6,8,13,13a-tetrahydro-5H-dibenzo [a,g] quinolizine] | 19 nmol/L | 3030 nmol/L | 211 nmol/L | – |
| COc1cc2c(cc1C(N)=O)[C@@H]1Cc3ccc(C(N)=O)c(OC)c3CN1CC2 [Example 38, (S)-2,10-dicarbamoyl-3,9-dimethoxy-6,8,13,13a-tetrahydro-5H-dibenzo[a,g] quinolizine] | 620 nmol/L | 4580 nmol/L | 3400 nmol/L | – |
| COc1ccc2c(c1OC)CN1CCc3cc(OC)c4[nH]c(=O)[nH]c4c3[C@@H]1C2 [Example 40, (S)-4,10,11-trimethoxy-3,6,7,9,14,14a-hexahydroimidazo[4,5-h] isoquinolino[3,2-a]isoquinoline-2(1H)-one] | 27 nmol/L | – | 4 nmol/L | 20 mg/kg |
| COc1ccc2c(c1OC)CN1CCc3cc(OC)c4nc[nH]c4c3[C@@H]1C2 [Example 42, (S)-4,10,11-trimethoxy-1,6,7,9,14,14a-hexahydroimidazo[4,5-h] isoquinolino[3,2-a]isoquinoline] | 291 nmol/L | – | 31.1 nmol/L | 10 mg/kg |
| COc1ccc2c(c1OC)CN1CCc3cc4[nH]c(=O)oc4cc3C1C2 (stereo not drawn) [Example 46, 9,10-Dimethoxy-3,5,6,8,13,13a-Hexahydro-2H-isoquinolino[3,2-a] oxazolo[4,5-g]isoquinolin-2-one] | 184 nmol/L | – | 378 nmol/L | 10 mg/kg |
| COc1ccc2c(c1OC)CN1CCc3cc4c(cc3C1C2)OCC(=O)N4 (stereo not drawn) [Example 47, 10,11-Dimethoxy-4,6,7,9,14,14a-Hexahydroisoquinolino[3,2-a][1,4] oxazino[3,2-g]isoquinoline-3(2H)-one] | 146 nmol/L | – | 19.9 nmol/L | 10 mg/kg |
| C=CCOc1cc2c(cc1OC)CCN1Cc3c(ccc(OC)c3OC)C[C@@H]21 [Example 52, (S)-2-allyloxy-3,9,10-trimethoxy-6,8,13,13a-tetahydro-5H-dibenzo [a,g] quinolizine] | 450 nmol/L | – | 220 nmol/L | 20 mg/kg |
| COc1cc2c(cc1OC1CC1)[C@@H]1Cc3ccc(OC)c(OC)c3CN1CC2 [Example 53, (S)-2-cyclopropoxy-3,9,10-trimethoxy-6,8,13,13a-tetrahydro-5H-dibenzo[a,g] quinolizine hydrochloride] | 1300 nmol/L | – | 960 nmol/L | 20 mg/kg |
| COc1cc2c(cc1OC)[C@@H]1Cc3ccc(OC)c(OCCO)c3CN1CC2 [Example 56, (S)-2,3,10-trimethoxy-9-hydroxyethoxy-6.8,13,13a-tetrahydro-5H-dibenzo[a,g] quinolizine] | 2800 nmol/L | 150 nmol/L | 1050 nmol/L | 20 mg/kg |
| COc1cc2c(cc1OC)[C@@H]1Cc3ccc(OC)c(OC4CC4)c3CN1CC2 [Example 57, (S)-2,3,10-trimethoxy-9-cyclopropoxy-6,8,13,13a-tetrahydro-5H-dibenzo[a,g] quinolizine hydrochloride] | – | 110 nmol/L | – | 20 mg/kg |

Source: patent US11731965B2, “Tetrahydroprotoberberine compound, preparation method therefor and uses thereof, and pharmaceutical composition” (SHANGHAI INSTITUTE OF MATERIA MEDICA, CHINESE ACADEMY OF …, priority 2017, dated 2023)
